Reference: ChEMBL document CHEMBL4419121, “Tetrahydropyridopyrazines modulators of gpr6” (2018)

target: G-protein coupled receptor 6 (Homo sapiens, UniProt P46095); test: Modulation activity at GPR6 receptor (unknown origin) expressed in CHO-K1 cells assessed as inhibition of constitutive cAMP activity incubated for 45 mins by Perkin Elmer Lance HTRF Ultrac-AMP assay; type: functional, cell-based
Sequence (P46095 whole entry): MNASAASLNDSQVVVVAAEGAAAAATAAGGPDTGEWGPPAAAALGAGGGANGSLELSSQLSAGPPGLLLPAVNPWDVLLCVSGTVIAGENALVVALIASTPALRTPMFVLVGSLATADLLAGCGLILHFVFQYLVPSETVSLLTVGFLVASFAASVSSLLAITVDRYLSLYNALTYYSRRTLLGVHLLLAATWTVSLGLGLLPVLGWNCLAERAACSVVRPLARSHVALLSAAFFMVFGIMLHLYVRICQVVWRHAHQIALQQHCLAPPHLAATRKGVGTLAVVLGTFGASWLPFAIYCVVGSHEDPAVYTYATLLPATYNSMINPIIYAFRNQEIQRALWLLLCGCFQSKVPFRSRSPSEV

| IC50 | SMILES |
| --- | --- |
| 0.0091 µM | CN(C)C(=O)N1CCc2nc(NCC(F)F)c(N3CCC(Oc4ccc(F)cc4F)CC3)nc2C1 |
| 0.0094 µM | CN1CCc2nc(NC3CC3)c(N3CCC(C(F)c4ccc(F)cc4F)CC3)nc2C1 (configuration not stated) |
| 0.0237 µM | CC(C)Nc1nc2c(nc1N1CCC(C(F)c3ccc(F)cc3F)CC1)CN(C(=O)N(C)C)CC2 (configuration not stated) |
| 0.0298 µM | COCCNC(=O)N1CCc2nc(N3CCC(Oc4ccc(F)cc4F)CC3)c(NC(C)C)nc2C1 |
| 0.259 µM | CC(C)Nc1nc2c(nc1N1CCC(Oc3ccc(F)cc3F)CC1)C(C)N(C(=O)C1CC1)CC2 (configuration not stated) |
| 0.091 µM | COCC(=O)N1CCc2nc(NC(C)C)c(N3CCC(Oc4ccc(F)cc4F)CC3)nc2C1C (configuration not stated) |
| 0.0134 µM | CC(=O)N1CCc2nc(N3CCC(C(F)c4ccc(F)cc4F)CC3)c(NC(C)C)nc2C1 (configuration not stated) |
| 0.105 µM | CC(=O)N1CCc2nc(NC(C)C)c(N3CCC(Oc4ccc(C#N)cc4F)CC3)nc2C1 |
| 0.0269 µM | CN(C)C(=O)N1CCc2nc(N3CCC(Oc4ccc(F)cc4F)CC3)c(NCC(F)F)nc2C1 |
| 0.0104 µM | CC1Cc2nc(NCC(F)F)c(N3CCC(Oc4ccc(F)cc4F)CC3)nc2CN1S(C)(=O)=O (configuration not stated) |
| 0.0098 µM | CC(=O)N1CCc2nc(NC(C)C)c(N3CCC(C(=O)c4cc(Cl)ccc4F)CC3)nc2C1 |
| 0.0232 µM | CC1Cc2nc(NCC(F)F)c(N3CCC(Oc4ccc(F)cc4F)CC3)nc2CN1C (configuration not stated) |
| 0.145 µM | COc1ccc(OC2CCN(c3nc4c(nc3NC3CC3)CCN(C)C4)CC2)c(F)c1 |
| 0.178 µM | CC(=O)N1CCc2nc(N3CCC(Oc4ccc(F)cc4F)CC3)c(NCC(F)F)nc2C1C (configuration not stated) |
| 0.052 µM | CC1c2nc(N3CCC(Oc4ccc(F)cc4F)CC3)c(NCC(F)F)nc2CCN1S(C)(=O)=O (configuration not stated) |
| 0.0788 µM | O=C(C(F)F)N1CCc2nc(N3CCC(Oc4ccc(F)cc4F)CC3)c(NCC(F)F)nc2C1 |
| 0.0197 µM | CC(C)Nc1nc2c(nc1N1CCC(C(F)c3ccc(F)cc3F)CC1)CCN(C(=O)N(C)C)C2 (configuration not stated) |
| 0.122 µM | CC(C)Nc1nc2c(nc1N1CCC(Oc3ccc(C#N)cc3F)CC1)CN(C(=O)C1CC1)CC2 |

| IC50 | SMILES |
| --- | --- |
| 0.126 µM | CC1c2nc(N3CCC(Oc4ccc(F)cc4F)CC3)c(NCC(F)F)nc2CCN1C(=O)C1CC1 (configuration not stated) |
| 0.068 µM | COCC(=O)N1CCc2nc(NCC(F)F)c(N3CCC(Oc4ccc(F)cc4F)CC3)nc2C1C (configuration not stated) |
| 0.0314 µM | CC1Cc2nc(NCC(F)F)c(N3CCC(Oc4ccc(F)cc4F)CC3)nc2CN1C(=O)N(C)C (configuration not stated) |
| 0.0185 µM | CO[C@H](C)C(=O)N1Cc2nc(N3CCC(Oc4ccc(F)cc4F)CC3)c(NCC(F)F)nc2CC1C (some centres not stated) |
| 0.064 µM | CO[C@H](C)C(=O)N1CCc2nc(N3CCC(Oc4ccc(F)cc4F)CC3)c(NCC(F)F)nc2C1 |
| 0.0085 µM | CC(=O)N1CCc2nc(NC(C)C)c(N3CCC(C(F)c4ccc(F)cc4F)CC3)nc2C1 (configuration not stated) |
| 0.391 µM | CC(C)Nc1nc2c(nc1N1CCC(Oc3ccc(F)cc3F)CC1)CCN(C(=O)N1CCCC1)C2 |
| 0.0199 µM | COc1ccc(OC2CCN(c3nc4c(nc3NC3CCC3)CN(C(C)=O)CC4)CC2)c(F)c1 |
| 0.0173 µM | COCC(=O)N1CCc2nc(NC(C)C)c(N3CCC(Oc4ccc(F)cc4F)CC3)nc2C1 |
| 0.0325 µM | COc1ccc(OC2CCN(c3nc4c(nc3NC3CCC3)CN(C(=O)N(C)C)CC4)CC2)c(F)c1 |
| 0.098 µM | CC(C)Nc1nc2c(nc1N1CCC(Oc3ccc(F)cc3F)CC1)C(C)N(S(C)(=O)=O)CC2 (configuration not stated) |
| 0.0221 µM | CC1Cc2nc(NCC(F)F)c(N3CCC(Oc4ccc(F)cc4F)CC3)nc2CN1C(=O)C(F)F (configuration not stated) |
| 0.0249 µM | CC(=O)N1Cc2nc(N3CCC(Oc4ccc(F)cc4F)CC3)c(NCC(F)F)nc2CC1C (configuration not stated) |
| 0.0088 µM | CC(C)Nc1nc2c(nc1N1CCC(C(=O)c3cc(Cl)ccc3F)CC1)CN(C)CC2 |
| 0.0195 µM | CC(C)Nc1nc2c(nc1N1CCC(Oc3ccc(F)cc3F)CC1)CN(C(=O)C1CCCO1)CC2 (configuration not stated) |
| 0.0179 µM | CC(C)Nc1nc2c(nc1N1CCC(Oc3ccc(F)cc3F)CC1)CCN(C(=O)C1CCCO1)C2 (configuration not stated) |
| 0.0626 µM | CC(C)Nc1nc2c(nc1N1CCC(Oc3ccc(F)cc3F)CC1)CCN(C(=O)N1CCOCC1)C2 |
| 0.023 µM | COCC(=O)N1Cc2nc(N3CCC(Oc4ccc(F)cc4F)CC3)c(NCC(F)F)nc2CC1C (configuration not stated) |

| SMILES | IC50 |
| --- | --- |
| CC(C)Nc1nc2c(nc1N1CCC(Oc3ccc(F)cc3F)CC1)CN(C(=O)N(C)C)CC2 | 0.0138 µM |
